Consider 1 molecule from patent US6214859A, “Ethylamine derivatives” (Fujimoto Brothers Co., Ltd., priority 1997, dated 2001).

For one data set, the system named is serotonin release, raphe. The data set can be described thus: Release of biogenic amines from brain tissue: serotonin, raphe. In kind it is in vivo, Wistar rats.
Data set [1] concerns dopamine release, striatum. The experiment in a line: Release of biogenic amines from brain tissue: dopamine, striatum. The format is in vivo, Wistar rats.
For data set [2], the system named is dopamine release, tuberculum olfactorium. The data set can be described thus: Release of biogenic amines from brain tissue: dopamine, tuberculum olfactorium. The format is in vivo, Wistar rats.
For data set [3], the system named is noradrenaline release, locus coeruleus. The data set can be described thus: Release of biogenic amines from brain tissue: noradrenaline, locus coeruleus. The format is in vivo, Wistar rats.
For data set [4], the system named is dopamine release, substantia nigra. The data set can be described thus: Release of biogenic amines from brain tissue: dopamine, substantia nigra. In kind it is in vivo, Wistar rats.
For data set [5], the system named is rats reduced learning ability by tetrabenazine. The data set can be described thus: Conditioned avoidance task in the shuttle box (tetrabenazine-treated rats). In kind it is in vivo, rat. To be noted: tetrabenazine 1 mg/kg s.c., significance and direction. In short, it runs like this:
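Male and female rats (200–220 g) were trained in a shuttle box (light/buzzer conditioned stimulus, 100 trials/day for 5 days). Tetrabenazine 1 mg/kg s.c. was given 1 h before testing, with compound at 1, 2, 2.5 or 5 mg/kg s.c. given together with tetrabenazine. CARs, EFs and IRs were counted automatically and analysed by multi-way ANOVA.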

The subject of another data set is mice. The experiment in a line: Toxicity test in mice in the single administration. The format is in vivo, mouse. To be noted: 50 mg/kg s.c., two weeks. How it is done: After the compounds of Examples 3, 25, 27 and 28 were administered subcutanously to mice, general symptoms of the mice were observed every day for two weeks.

As for `CCCNC(CCC)Cc1ccc2ccccc2c1.Cl` (stereo not drawn) [Compound No. 3, 1-(2-Naphthyl)-2-propylaminopentane Hydrochloride], the “Release of serotonin, raphe” value in the data set with serotonin release, raphe (0.25 mg/kg s.c.) was 0.958 ± 0.03 nmol/g tissue, for 20 min; in the data set on serotonin release, raphe (5.00 mg/kg s.c.), 1.215 ± 0.14 nmol/g tissue, for 20 min. Moreover, the “Release of dopamine, striatum” value in data set [1] (0.25 mg/kg s.c.) is given as 3.4 ± 0.03 nmol/g tissue, for 20 min; in data set [1] (1.00 mg/kg s.c., Hydrochloride), 3.9 ± 0.12 nmol/g tissue, for 20 min; in data set [1] (5.00 mg/kg s.c.), 3.8 ± 0.04 nmol/g tissue, for 20 min. Also, the “Release of dopamine, tuberculum olfactorium” value in data set [2] (0.25 mg/kg s.c.) is listed as 4.3 ± 0.09 nmol/g tissue, for 20 min; in data set [2] (1.00 mg/kg s.c., Hydrochloride), 5.2 ± 0.12 nmol/g tissue, for 20 min; in data set [2] (5.00 mg/kg s.c.), 5.1 ± 0.39 nmol/g tissue, for 20 min. For the same molecule, the “Release of noradrenaline, locus coeruleus” value was 4.4 ± 0.10 nmol/g tissue, for 20 min in data set [3] (0.25 mg/kg s.c.); 2.6 ± 0.10 nmol/g tissue, for 20 min in data set [3] (1.00 mg/kg s.c., Hydrochloride); 2.2 ± 0.11 nmol/g tissue, for 20 min in data set [3] (5.00 mg/kg s.c.). Moreover, the “Release of dopamine, substantia nigra” value in data set [4] (0.25 mg/kg s.c.) was 4.9 ± 0.07 nmol/g tissue, for 20 min; in data set [4] (1.00 mg/kg s.c., Hydrochloride) it was 4.5 ± 0.07 nmol/g tissue, for 20 min; in data set [4] (5.00 mg/kg s.c.) it was 9.0 ± 0.50 nmol/g tissue, for 20 min. Moreover, the “Escape Failures (EFs)” value in data set [5] (1 mg/kg s.c.) is recorded as “**** .dwnarw”; in data set [5] (2 mg/kg s.c.), “**** .dwnarw”; in data set [5] (2.5 mg/kg s.c.), “*** .dwnarw”; in data set [5] (5 mg/kg s.c.), “**** .dwnarw”. The “Condition Avoidance Reflex (CARs)” value in data set [5] (1 mg/kg s.c., Hydrochloride) is given as “**** .Arrow-up bold”; in data set [5] (2 mg/kg s.c.), “**** .Arrow-up bold”; in data set [5] (2.5 mg/kg s.c.), “**** .Arrow-up bold”; in data set [5] (5 mg/kg s.c.), “**** .Arrow-up bold”. For the same molecule, in data set [5] (2.5 mg/kg s.c.), the “Intersignal Reactions (IRs)” value was “* .dwnarw”. Moreover, in the data set on mice, the survival result is given as “all the mice survived”.
